Source: publication PMC4125160, “Neurotoxicity and Mode of Action of N, N-Diethyl-Meta-Toluamide (DEET)” (PLoS ONE, 2014)
Where two headings read alike, the source gives them in different places.

Key:
A. gambiae (AKRON) = assay: Topical toxicity bioassay on adult females; assay type: in vivo, Anopheles gambiae
Protocol: (§1) Topical toxicity bioassays on adult female mosquitoes were performed based on the method of Pridgeon et al.. Briefly, insects were chilled on ice for 3 min, during which the appropriate volume (200 nL for mosquitoes, 1 µL for Musca) of chemical (dissolved in 95% ethanol) was applied onto the abdomen using a handheld Hamilton microapplicator. For each inhibitor, five doses were applied to groups of ten insects each and repeated three times. An ethanol-only treatment was included in each experiment as a negative control. Insects were transferred into a holding chamber post-treatment and supplied with free access to sugar water for the duration of the experiment. […] Three LD50 values were obtained and the mean LD50 value was calculated and used for statistical analysis.
(§2) For all toxicity assays, control mortality was corrected for using Abbots formula [19]; where corrected percent mortality = (% alive in control–% alive in treated) /% alive in control.

A. gambiae (G3) = assay: Topical toxicity bioassay on adult females; assay type: in vivo, Anopheles gambiae; conditions: topical application, ng of compound/mg of mosquito weight, 24 hr
Protocol: as §1, §2

Aedes aegypti = assay: Topical toxicity bioassay on adult females; assay type: in vivo; conditions: for signs of intoxication: DEET lethal doses, propoxur 1 ng/insect, five minutes after treatment; for LD50 (95% CI): topical application, ng of compound/mg body weight, 24 hr
Protocol: as §1, §2

[1] = system: neuromuscular junction of third instar Musca domestica larvae; assay: Neuromuscular junction recordings of evoked EPSP in housefly larvae; conditions: for effect on evoked EPSP in words: toluene at 5 mM
Protocol: Neuromuscular recordings of the evoked excitatory postsynaptic potential (EPSP) were performed on third instar housefly larvae, essentially as described previously. In short, the maggot was immobilized with pins, and the nervous and musculature systems were exposed. The preparation was then bathed in saline containing: 140 mM NaCl, 0.75 mM CaCl2, 5 mM KCl, 4 mM MgCl2, 5 mM NaHCO3, and 5 mM HEPES (pH = 7.25). The nerves were severed from the base of the CNS, which was removed, and a lateral nerve trunk innervating the longitudinal muscles was drawn into a suction electrode filled with saline. Stimuli were applied at 1 volt and of 0.2 sec duration to elicit a contraction from the longitudinal muscles. The stimulated muscle was then impaled with a recording glass capillary microelectrode filled with 1 M KCl to record effects on the evoked EPSP and membrane potential. Signals from all recordings were amplified and digitized with the use of the MacLab. Chemicals were applied to the preparation directly by hand pipetting 150 µL of solution into the bath volume of 150 µL.

firefly light organ = assay: In vivo assay for effects on firefly light organ; design: species or system Photinus pyralis
Protocol: Adult firefly beetles (Photinus sp.) were collected locally (Nashville, TN) and housed in well-ventilated chambers with tree leaves. The animals had free access to 10% sucrose solution. Chemicals were dissolved in absolute ethanol and 1 µL was topically applied directly to the ventral light organ with the use of a manual pipettor. Prior to DEET application, the beetles were immobilized with molten parafilm and were mounted on corrugated cardboard for the duration of the study. Due to the time required for bioactivation of CDM, insects were treated with 1 µL of CDM and were released back into the holding chamber for three hours. After three hours, they were mounted in the previously described manner and monitored for activation of the lantern. Photographs were captured with a handheld camera (Canon PowerShot SX110 IS). Pictures were captured within five minutes, four hours, and 10 minutes post application for DEET, CDM, and propoxur, respectively. DEET- and propoxur-treated insects were monitored for at least 1 hour post exposure to ensure the response was not slow acting. The original photographs were cropped and background shadows were enhanced to increase detail of the insect using Adobe Photoshop PS5 (Adobe Systems, San Jose, CA, USA). The color or brightness of the light organ was not manipulated in any way during post-processing of the image.

[2] = system: housefly larval central nervous system; assay: Neurophysiological recordings of CNS nerve discharge in housefly larvae; design: species or system Musca domestica; conditions: for EC50: Musca domestica
Protocol: Neurophysiological recordings were performed on the central and peripheral nervous systems of larval Musca domestica. Glass pipette electrodes were pulled from borosilicate glass capillaries on a P-1000 Flaming/Brown micropipette puller (Sutter Instrument, Novato CA, USA). For CNS recordings, it was first excised from the larvae and placed in a separate dish with physiological saline (200 µL) containing: 157 mM NaCl, 3 mM KCl, 2 mM CaCl2, and 4 mM HEPES, pH = 7.25. The CNS was manually transected posterior to the cerebral lobes to disrupt the blood-brain barrier and enhance chemical penetration. Any convenient peripheral nerve trunks were pulled into a recording suction electrode. Amplification and digitization of descending electrical activity originating from the CNS were converted on-line into a rate plot, expressed in Hz (MacLab analog to digital converter hardware and LabChart 7 software, ADInstruments, Colorado Springs, CO, USA). […] After a baseline was established, the CNS preparation was directly exposed to test compound by adding 200 µL of solution to the bath containing 200 µL of saline. The final concentration of solvent in the bath was 0.1% DMSO. Each concentration was recorded for 3–5 min prior to the addition of the next drug concentration. […] Each drug concentration was replicated 3-5 times.

SMILES | LD50 (+PBO) (95% CI) (A. gambiae (AKRON); topical application after 4 hr pretreatment with 200 ng PBO) | LD50 (95% CI) (A. gambiae (AKRON); topical application, ng of compound/mg of mosquito weight, 24 hr) | LD50 (95% CI) (A. gambiae (G3)) | signs of intoxication (Aedes aegypti) | LD50 (95% CI) (Aedes aegypti) | time to complete block ([1]; 10 mM added to the bath) | change in muscle membrane resting potential ([1]; any concentration) | concentration at which half of the preparations were blocked ([1]; evoked EPSP, all or none response) | effect on evoked EPSP in words [1] | lantern illumination (firefly light organ; 5 µg topically on light organ) | period the lantern remained active (firefly light organ; 5 µg, majority of individuals) | lantern illumination (firefly light organ; 1 and 2.5 µg topically on light organ) | interval of repeated activation of the lantern (firefly light organ; controls flashed every 45-90 seconds) | threshold concentration for neuroexcitation [2] | EC50 ([2]; abstract, read-out: EC50, excitatory effects) | lantern illumination (firefly light organ; 1 µg topically on light organ) | EC50 ([2]; Fig. 3C, read-out: EC50 for increasing spike frequency in the CNS)
CCN(CC)C(=O)c1cccc(C)c1 [DEET, N, N-diethyl-meta-toluamide] | 1247 (872–1526)a ng/ml | 1472 (1136–1806)b ng/mg | 1175 (988–1361)a ng/mg | both hyperexcitatory and lethargic tendencies | 1102 (836–1367)a ng/mg | approximately 120 seconds | Little or no change | ca. 7 mM | complete and rapid block | Bright and complete illumination of the lantern | 10 to 60 s | Faint illumination in circumscribed areas of the lantern | 10 to 20 s | about 50 µM | 120 µM |  | 
CNC(=O)Oc1ccccc1OC(C)C [propoxur] |  |  |  | intense hyperexcitation in the absence of any physical stimulation | 1.4 (95% CI: 0.9–2.1) ng/mg |  |  |  | no effect |  |  |  |  |  |  | no changes in lantern illumination | 0.344 µM
